Test results taken from patent US7481993B2, “Chelators for radioactively labeled conjugates comprising a stabilizing sidechain” (Schering AG, priority 2005, dated 2009).
“And” between values parts separate entries of the source, which are not always exact repeats. Equal entries are not always repeated. Blank lines part the entries; values can stand above or below the substance they belong to. * marks the point of attachment. Bz = O=C(c1ccccc1)*

Experiments:
Format in all cases: physicochemical
[1] = Cysteine challenge stability of ^99mTc chelator peptides; settings: N1-N2-Cys triamide thiol chelators; for % Peptide Complexed to ^99mTc Initial: 150 μg cysteine, room temperature, Initial (within 5 minutes); for % Peptide Complexed to ^99mTc 2 h / % Peptide Complexed to ^99mTc 4 h / % Peptide Complexed to ^99mTc 6 h / % Peptide Complexed to ^99mTc 8 h / % Peptide Complexed to ^99mTc 10 h / % Peptide Complexed to ^99mTc 12 h: cysteine challenge
Procedure: (§1) For the ^99mTc radiolabeling, a peptide as the TFA salt was dissolved in saline at 1 mg/mL and 100 μg (100 μL) was added to a ^99mTc placebo vial. The vial was reconstituted with 0.9 mL technetium ^99mTc sodium pertechnetate containing approximately 20 mCi and saline such that the final preparation volume was 1.1 mL. The vial was heated in a boiling water bath for 10 minutes and cooled at room temperature for 10 minutes.
(§2) The radiochemical purity (RCP) of the ^99mTc or ^188Re peptides was measured by gradient reversed phase HPLC using a Eurosphere-100 C18 HPLC column and 0.1% TFA mobile phases moderated with acetonitrile. Radioactive components were detected in the HPLC system using an in-line radiometric detector. Under the gradient conditions employed radiolabeled impurities (for example: ^99mTc glucoheptonate, ^99mTc edetate, and ^99mTc pertechnetate) eluted early (between 1 and 4 minutes), while the radiolabeled peptides eluted much later (between 8 and 20 minutes). In general, two isomeric radiometal complexes were observed, and the HPLC RCP was measured as the sum of the percent areas of the peaks corresponding to the two complexes. Radiochemical purity results for each of compounds are summarized in the examples that follow.
(§3) To ^99mTc radiolabelled peptide preparations described in Example 3 was added 150 μg of cysteine (approximately a 7-fold molar excess over peptide), and the preparations were stored at room temperature and monitored by HPLC for up to 12 hours. The amount of ^99mTc cysteine formed over time was noted. The initial HPLC analysis was started within 5 minutes of adding cysteine. In all cysteine challenge studies, a chelator compound containing a stabilizing sidechain was screened vs. the corresponding control chelator compound containing no sidechain. The relative amount of ^99mTc cysteine formed over time correlates inversely with the stability of the chelator (ie. less ^99mTc cysteine indicates higher chelator stability).
Several model chelator peptides were prepared with an N^1—N^2-Cys (N^1, N^2=independently any amino acid) amino acid sequence capable of complexing technetium as a triamide thiol chelator. Various stabilizing sidechains were substituted into the N^1—N^2-Cys chelator in two positions R1 and R2 as depicted in FIG. 4. The compounds were screened in the cysteine challenge experiment described in Example 4. Several experiments were conducted where 1-2 chelators were compared directly to a control chelator containing no stabilizing sidechain (compound GoC1 was also analyzed alone in a further study). Results in Table 5 represent % Peptide complexed to ^99mTc (ie. 100%−the amount of ^99mTc cysteine) vs. time.
Several model chelator peptides were prepared with an (β)Dap-N^2-Cys (N^2=any amino acid) amino acid sequence capable of complexing technetium as an amine diamide thiol chelator. This chelator is the chelator in the somatostatin peptides that were evaluated in Examples 5 and 6. Various stabilizing sidechains were substituted into the (β)Dap-N^2-Cys chelator in two positions R3 and R4 as depicted in FIG. 5. The compounds were screened in the cysteine challenge experiment described in Example 4. Several experiments were conducted where 1-2 chelators were compared directly to a control chelator containing no stabilizing sidechain. Results in Table 6 are the same as described in Example 7.
Two model chelator peptides were prepared with a ma-N^1—N^2 (Ma=mercaptoacetyl; N^1, N^2=independently any amino acid) amino acid sequence capable of complexing technetium as a triamide thiol chelator. This chelator has the thiol donor group at the N-terminus of the peptide. A stabilizing sidechain was substituted into the ma-N^1—N^2 chelator in position R5 as depicted in FIG. 6. The compounds were radiolabeled according to Example 3 with the exception that additional NaOH was added to bring the pH of the preparation up to pH 8.5. […]

[2] = Cysteine challenge stability of ^188Re chelator peptides; settings: radiolabeled with ^188Re
Procedure: For the ^188Re radiolabeling, a peptide as the TFA salt was dissolved in saline at 1 mg/mL and 100 μg (100 μL) was added to a ^188Re placebo vial. To the vial was added 100 μg stannous chloride dihydrate. The vial was reconstituted with 0.9 mL rhenium ^188Re sodium perrhenate containing approximately 20 mCi and saline such that the final preparation volume was 1.5 mL. The vial was heated in a boiling water bath for 15 minutes and cooled at room temperature for 10 minutes. Finally 1 mL of an antioxidant stabilizer solution containing 10 mg gentisic acid sodium salt monohydrate and 20 mg ascorbic acid was added to the vial.
as §2, §3
Some of the N^1—N^2-Cys (N^1, N^2=independently any amino acid) model chelator peptides described in Example 7 were radiolabeled with ^188Re and screened in the cysteine challenge experiment described in Example 4. Two chelators (See FIG. 4) were compared directly to the control chelator containing no stabilizing sidechain. In these studies, the products were monitored for 6 hours. Results in Table 8 represent % Peptide complexed to ^188Re (ie. 100%−the amount of ^188Re cysteine) vs. time.

[3] = HPLC radiochemical purity (RCP) stability of ^99mTc radiolabeled somatostatin peptides
Procedure: Lyophilized kit “placebo” vials were prepared containing 5 mg sodium glucoheptonate dihydrate, 100 μg edetate disodium dihydrate, and either 50 μg (^99mTc placebo) or 1000 μg (^188Re placebo) stannous chloride dihydrate. The formulations were adjusted to pH 7.4 prior to lyophilization.
as §1, §2
Somatostatin peptides were prepared with varying sidechains in the chelator portion of the compounds as described in FIG. 2. The sidechains varied in length from 0 to 5 atoms. These peptides have an amine-diamide-thiol chelator of the (β)Dap-N^2-Cys type (N^2=any amino acid). Each of the peptides were radiolabeled and monitored for HPLC stability out to 9 hours according the procedures described in Example 3.
Analogs to a commercial lung cancer imaging radiopharmaceutical (NeoTect®) were prepared to investigate the influence of the stabilizing sidechain (D)-CH2CH2CH2NH2 as described in FIG. 3. These peptides have an amine-diamide-thiol chelator of the (β)Dap-N^2-Cys type (N^2=any amino acid). The compound with N^2=Lys (sidechain=(L)-CH2CH2—CH2CH2NH2) is the peptide in the commercial radiopharmaceutical product. Each of the peptides were radiolabeled and monitored for HPLC stability out to 18 hours according to the procedures described in Example 3.

[4] = ^99mTc labeled somatostatin peptide, (β)Dap-N2-Cys chelator, sum of percent areas of the two complex peaks
[5] = ^99mTc labeled somatostatin peptide, (β)Dap-N2-Cys chelator

Substance: Bz-Gly-Gly-Glu-Cys-Ala.amide (Bz-GGECA-NH2; SMILES C[C@H](NC(=O)[C@H](CS)NC(=O)[C@H](CCC(=O)O)NC(=O)CNC(=O)CNC(=O)c1ccccc1)C(N)=O)
% Peptide Complexed to ^99mTc Initial [1]: 100%
% Peptide Complexed to ^99mTc 2 h [1]: 88.9%
% Peptide Complexed to ^99mTc 4 h [1]: 84.5%
% Peptide Complexed to ^99mTc 6 h [1]: 80.3%
% Peptide Complexed to ^99mTc 8 h [1]: 75.7%
% Peptide Complexed to ^99mTc 10 h [1]: 74.1%
% Peptide Complexed to ^99mTc 12 h [1]: 69.0%
% Peptide Complexed to ^188Re ([2]; 1.5 h): 94.0%
% Peptide Complexed to ^188Re ([2]; 3 h): 90.5%
% Peptide Complexed to ^188Re ([2]; 4.5 h): 89.7%
% Peptide Complexed to ^188Re ([2]; 6 h): 90.2%
% Peptide Complexed to ^188Re ([2]; N1-N2-Cys chelators, Initial): 98.0%

Substance: Bz-Gly-Gly-Gly-Cys-Ala.amide (Bz-GGGCA-NH2; SMILES C[C@H](NC(=O)[C@H](CS)NC(=O)CNC(=O)CNC(=O)CNC(=O)c1ccccc1)C(N)=O) [GGC1, control chelator, no stabilizing sidechain]
% Peptide Complexed to ^99mTc Initial [1]: 98.2% and 98.8% and 96.9%
% Peptide Complexed to ^99mTc 2 h [1]: 83.4% and 83.6% and 85.2%
% Peptide Complexed to ^99mTc 4 h [1]: 83.5% and 74.0% and 71.7%
% Peptide Complexed to ^99mTc 6 h [1]: 74.3% and 72.0%
% Peptide Complexed to ^99mTc 8 h [1]: 69.8% and 68.3% and 61.7%
% Peptide Complexed to ^99mTc 10 h [1]: 57.9% and 65.0% and 60.0%
% Peptide Complexed to ^99mTc 12 h [1]: 60.7% and 49.7%
% Peptide Complexed to ^188Re ([2]; 1.5 h): 80.1%
% Peptide Complexed to ^188Re ([2]; 3 h): 61.4%
% Peptide Complexed to ^188Re ([2]; 4.5 h): 50.2%
% Peptide Complexed to ^188Re ([2]; 6 h): 47.7%
% Peptide Complexed to ^188Re ([2]; N1-N2-Cys chelators, Initial): 100%

Substance: cyclo-[(N-Me)Phe-Tyr-(D)Trp-Lys-Val-Hcy]-CH2CO.(β)Dap-Gly-Cys-Lys-NH2 [-(β)Dap-Gly-Cys-Lys-NH2]
HPLC RCP 0.5 hours ([3]; ^99mTc labeled NeoTect analogs): 92.3%
HPLC RCP 3 hours ([3]; ^99mTc labeled NeoTect analogs): 84.9%
HPLC RCP 6 hours ([3]; ^99mTc labeled NeoTect analogs): 85.6%
HPLC RCP 9 hours ([3]; ^99mTc labeled NeoTect analogs): 81.3%
HPLC RCP 18 hrs. ([3]; ^99mTc labeled NeoTect analogs): 76.0%

Substance: cyclo-[Tyr-(D)Trp-Lys-Thr-Phe-(N-Me)Hcy]-CH2CO.(β)Dap-Gly-Cys-Thr-Ser [—H]
HPLC RCP 0.5 hours [3, 4]: 89.7%
HPLC RCP 3 hours [3, 5]: 84.8%
HPLC RCP 6 hours [3, 5]: 83.7%
HPLC RCP 9 hours [3, 5]: 80.2%

Substance: cyclo-[Tyr-(D)Trp-Lys-Thr-Phe-(N-Me)Hcy]-CH2CO.(β)Dap-Orn-Cys-Thr-Ser [—CH2CH2CH2NH2]
HPLC RCP 0.5 hours [3, 4]: 97.0%
HPLC RCP 3 hours [3, 5]: 95.2%
HPLC RCP 6 hours [3, 5]: 94.9%
HPLC RCP 9 hours [3, 5]: 94.9%

More lines, now with the values ahead:

HPLC RCP 0.5 hours ([3]; ^99mTc labeled NeoTect analogs): 96.8%
HPLC RCP 3 hours ([3]; ^99mTc labeled NeoTect analogs): 94.1%
HPLC RCP 6 hours ([3]; ^99mTc labeled NeoTect analogs): 91.3%
HPLC RCP 9 hours ([3]; ^99mTc labeled NeoTect analogs): 89.8%
HPLC RCP 18 hrs. ([3]; ^99mTc labeled NeoTect analogs): 81.9%
Substance: cyclo-[(N-Me)Phe-Tyr-(D)Trp-Lys-Val-Hcy]-CH2CO.(β)Dap-(D)Orn-Cys-Lys-NH2 [-(β)Dap-(D)Orn-Cys-Lys-NH2]

HPLC RCP 0.5 hours ([3]; ^99mTc labeled NeoTect analogs): 93.9%
HPLC RCP 3 hours ([3]; ^99mTc labeled NeoTect analogs): 91.0%
HPLC RCP 6 hours ([3]; ^99mTc labeled NeoTect analogs): 85.2%
HPLC RCP 9 hours ([3]; ^99mTc labeled NeoTect analogs): 81.8%
HPLC RCP 18 hrs. ([3]; ^99mTc labeled NeoTect analogs): 75.7%
Substance: cyclo-[(N-Me)Phe-Tyr-(D)Trp-Lys-Val-Hcy]-CH2CO.(β)Dap-Lys-Cys-Lys-NH2 [-(β)Dap-Lys-Cys-Lys-NH2, reference compound]

HPLC RCP 0.5 hours [3, 4]: 88.5%
HPLC RCP 3 hours [3, 5]: 86.6%
HPLC RCP 6 hours [3, 5]: 84.1%
HPLC RCP 9 hours [3, 5]: 82.6%
Substance: cyclo-[Tyr-(D)Trp-Lys-Thr-Phe-(N-Me)Hcy]-CH2CO.(β)Dap-(α)Dap-Cys-Thr-Ser [—CH2NH2]

HPLC RCP 0.5 hours [3, 4]: 94.3%
HPLC RCP 3 hours [3, 5]: 91.6%
HPLC RCP 6 hours [3, 5]: 90.7%
HPLC RCP 9 hours [3, 5]: 89.2%
Substance: cyclo-[Tyr-(D)Trp-Lys-Thr-Phe-(N-Me)Hcy]-CH2CO.(β)Dap-Dab-Cys-Thr-Ser [—CH2CH2NH2]

HPLC RCP 0.5 hours [3, 4]: 83.4%
HPLC RCP 3 hours [3, 5]: 83.4%
HPLC RCP 6 hours [3, 5]: 81.3%
HPLC RCP 9 hours [3, 5]: 81.0%
Substance: cyclo-[Tyr-(D)Trp-Lys-Thr-Phe-(N-Me)Hcy]-CH2CO.(β)Dap-Lys-Cys-Thr-Ser [—CH2CH2CH2CH2NH2]

HPLC RCP 0.5 hours [3, 4]: 95.0%
HPLC RCP 3 hours [3, 5]: 93.7%
HPLC RCP 6 hours [3, 5]: 92.5%
HPLC RCP 9 hours [3, 5]: 92.3%
Substance: cyclo-[Tyr-(D)Trp-Lys-Thr-Phe-(N-Me)Hcy]-CH2CO.(β)Dap-Met-Cys-Thr-Ser [—CH2CH2SCH3]
